# Target: T1, full length human wildtype Btk (Homo sapiens, UniProt Q06187)
# T1 construct: V5 (C); 6xHis (C); made in house; host or cells: Sf9 insect cells (baculovirus, pFastBac)
# Assay: Biochemical Btk Kinase Assay (Example 901)
# Conditions: time-resolved fluorescence, final ATP concentration 40 µM; alternatively Lanthascreen assay, ATP 25 uM
# Description: Formula I compounds were tested by a standard biochemical Btk Kinase Assay (Example 901). A generalized procedure for a standard biochemical Btk Kinase Assay that can be used to test Formula I compounds is as follows. […] Btk enzyme is prepared as follows: full length human wildtype Btk (accession number NM-000061) with a C-terminal V5 and 6x His tag was subcloned into pFastBac vector for making baculovirus carrying this epitope-tagged Btk. Generation of baculovirus is done based on Invitrogen's instructions detailed in its published protocol "Bac-to-Bac Baculovirus Expression Systems" (Cat. Nos. 10359-016 and 10608-016). Passage 3 virus is used to infect Sf9 cells to overexpress the recombinant Btk protein. The Btk protein is then purified to homogeneity using Ni-NTA column. The purity of the final protein preparation is greater than 95% based on the sensitive Sypro-Ruby staining. A solution of 200 µM ATP is prepared in water and adjusted to pH7.4 with 1N NaOH. A quantity of 1.25 µL of compounds in 5%DMSO is transferred to a 96-well ½ area Costar polystyrene plate. Compounds are tested singly and with an 11-point dose-responsive curve (starting concentration is 10 µM; 1:2 dilution). A quantity of 18.75 µL of master mix minus enzyme (as a negative control) and master mix plus enzyme is transferred to appropriate wells in 96-well ½ area costar polystyrene plate. 5 µL of 200 µM ATP is added to that mixture in the 96-well ½ area Costar polystyrene plate for final ATP concentration of 40 µM. The reaction is allowed to incubate for 1 hour at room temperature. The reaction is stopped with Perkin Elmer 1X detection buffer containing 30 mM EDTA, 20 nM SA-APC, and 1 nM PT66 Ab. The plate is read using time-resolved fluorescence with a Perkin Elmer Envision using excitation filter 330 nm, emission filter 665 nm, and 2nd emission filter 615 nm. IC50 values are subsequently calculated. Alternatively, the Lanthascreen assay can be used to evaluate Btk activity through quantification of its phosphorylated peptide product. The FRET (Fluorescence Resonance Energy Transfer) that occurs between the fluorescein on the peptide product and the terbium on the detection antibody decreases with the addition of inhibitors of Btk that reduce the phosphorylation of the peptide. […] After incubation for 60 minutes at room temperature, the reaction is stopped by the addition of a final concentration of 2 nM Tb-PY20 detection antibody in 60 mM EDTA for 30 minutes at room temperature. Detection is determined on a Perkin Elmer Envision with 340 nm excitation and emission at 495 nm and 520 nm. Exemplary Btk inhibition IC50 values are in Tables and 2.
# T1 sequence (Q06187 whole entry): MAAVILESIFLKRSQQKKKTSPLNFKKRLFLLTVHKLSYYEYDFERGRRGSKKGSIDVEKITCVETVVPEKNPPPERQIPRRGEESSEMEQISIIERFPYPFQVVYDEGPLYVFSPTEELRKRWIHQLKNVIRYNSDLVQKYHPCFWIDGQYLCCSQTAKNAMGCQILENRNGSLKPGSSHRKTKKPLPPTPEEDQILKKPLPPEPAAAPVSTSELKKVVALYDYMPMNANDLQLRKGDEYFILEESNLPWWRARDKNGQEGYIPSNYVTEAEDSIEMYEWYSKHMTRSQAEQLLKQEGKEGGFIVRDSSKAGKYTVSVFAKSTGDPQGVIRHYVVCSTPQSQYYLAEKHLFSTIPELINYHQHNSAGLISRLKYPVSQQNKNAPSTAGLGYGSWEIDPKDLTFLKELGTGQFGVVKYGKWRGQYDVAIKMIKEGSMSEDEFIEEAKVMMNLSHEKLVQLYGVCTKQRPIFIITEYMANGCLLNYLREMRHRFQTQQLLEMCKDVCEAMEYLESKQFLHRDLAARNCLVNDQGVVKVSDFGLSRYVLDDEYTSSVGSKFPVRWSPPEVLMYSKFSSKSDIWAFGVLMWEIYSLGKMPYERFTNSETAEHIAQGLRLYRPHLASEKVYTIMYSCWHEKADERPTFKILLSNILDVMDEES
row,SMILES,IC50 [µM]
1,"Cc1c(-c2cc(Nc3cc(C)n(C)n3)c(=O)[nH]n2)cccc1N1Cc2cc(C(C)(C)C)sc2C1=O [Compound 112, 6-(3-{2-tert-butyl-6-oxo-4H,5H,6H-thieno[2,3-c]pyrrol-5-yl}-2-methylphenyl)-4-[(1,5-dimethyl-1 H-pyrazol-3-yl)amino]-2,3-dihydropyridazin-3-one]",0.003
2,"Cc1cc(Nc2cc(-c3cccc(N4Cc5cc(C(C)(C)C)sc5C4=O)c3C)n[nH]c2=O)no1 [Compound 115, 6-(3-{2-tert-butyl-6-oxo-4H,5H,6H-thieno[2,3-c]pyrrol-5-yl}-2-methylphenyl)-4-[(5-methyl-1,2-oxazol-3-yl)amino]-2,3-dihydropyridazin-3-one]",0.018
3,"Cc1cc(Nc2cc(-c3ccc(F)c(N4Cc5cc(C(C)(C)C)sc5C4=O)n3)n[nH]c2=O)nn1C [Compound 117, 6-(6-{2-tert-butyl-b-oxo-4H,5H,6H-thieno[2,3-c]pyrrol-5-yl}-5-fluoropyridin-2-yl)-4-[(1,5-dimethyl-1H-pyrazol-3-yl)amino]-2,3-dihydropyridazin-3-one]",0.045
4,"Cc1c(-c2cc(Nc3nc4c(s3)CNCC4)c(=O)[nH]n2)cccc1N1Cc2cc(C(C)(C)C)sc2C1=O [Compound 118, 6-(3-{2-tert-butyl-6-oxo-4H,5H,6H-thieno[2,3-c]pyrrol-5-yl}-2-methylphenyl)-4-{4H,5H,6H,7H-pyrido[4,3-d][1,3]thiazol-2-ylamino}-2,3-dihydropyridazin-3-one]",0.065
5,"Cc1c(-c2cc(Nc3cc(CN4CC(F)(F)C4)n(C)n3)c(=O)[nH]n2)cccc1N1Cc2cc(C(C)(C)C)sc2C1=O [Compound 119, 6-(3-{2-tert-butyl-6-oxo-4H,5H,6H-thieno[2,3-c]pyrrol-5-yl}-2-methylphenyl)-4-({5-[(3,3-difluoroazetidin-1-yl)methyl]-1-methyl-1H-pyrazol-3-yl}amino)-2,3-dihydropyridazin-3-one]",0.005
6,"CN1CCn2nc(Nc3cc(-c4cccc(N5Cc6cc(C(C)(C)C)sc6C5=O)c4CO)nn(C)c3=O)cc2C1 [Compound 120, 6-(3-{2-tert-butyl-6-oxo-4H,5H,6H-thieno[2,3-c]pyrrol-5-yl}-2-(hydroxymethyl)phenyl)-2-methyl-4-({5-methyl-4H,5H,6H,7H-pyrazolo[1,5-a]pyrazin-2-yl}amino)-2,3-dihydropyridazin-3-one]",0.055

# Test system: production of CD69 by B lymphocytes in human whole blood
# Assay: CD69 Whole Blood Assay (Example 907)
# Type: cell-based
# Conditions: Lymphocyte; human whole blood activated with goat F(ab')2 anti-human IgM, 20 hours; percent CD69 positive cells that are also CD20 positive
# Source text: A CD69 Whole Blood Assay can be conducted on Formula I compounds to determine the ability of compounds to inhibit the production of CD69 by B lymphocytes in human whole blood activated by crosslinking surface IgM with goat F(ab')2 anti-human IgM (Example 907).
# Human blood is obtained from healthy volunteers, with the following restrictions: 1 week drug-free, non-smokers. Blood (approximately 20 mls to test 8 compounds) is collected by venipuncture into Vacutainer® (Becton, Dickinson and Co.) tubes with sodium heparin.
# Solutions of Formula I compounds at 10 mM in DMSO are diluted 1:10 in 100% DMSO, then are diluted by three-fold serial dilutions in 100% DMSO for a ten point dose-response curve. The compounds are further diluted 1:10 in PBS and then an aliquot of 5.5 µl of each compound is added in duplicate to a 2 ml 96-well plate; 5.5 µl of 10% DMSO in PBS is added as control and no-stimulus wells. Human whole blood - HWB (100 µl) is added to each well. After mixing the plates are incubated at 37 °C, 5% CO2, 100% humidity for 30 minutes. Goat F(ab')2 anti-human IgM (10 µl of a 500 µg/ml solution, 50 µg/ml final) is added to each well (except the no-stimulus wells) with mixing and the plates are incubated for an additional 20 hours. At the end of the 20 hour incubation, samples are incubated with fluorescent labeled antibodies for 30 minutes, at 37 °C, 5% CO2, 100% humidity. Include induced control, unstained and single stains for compensation adjustments and initial voltage settings. Samples are then lysed with PharM Lyse™ (BD Biosciences Pharmingen) according to the manufacturer's instructions. Samples are then transferred to a 96 well plate suitable to be run on the BD Biosciences HTS 96 well system on the LSRII machine. Data acquired and Mean Fluorescence Intensity values were obtained using BD Biosciences DIVA Software. Results are initially analyzed by FACS analysis software (Flow Jo). […] The IC50 values are calculated by Prism version 5, using a nonlinear regression curve fit.
row,IC50 [µM],SMILES
1,0.568,"CC(=O)N1CCn2nc(Nc3cc(-c4cccc(N5Cc6cc(C(C)(C)C)sc6C5=O)c4CCO)nn(C)c3=O)cc2C1 [Compound 128, 6-(3-{2-tert-butyl-6-oxo-4H,5H,6H-thieno[2,3-c]pyrrol-5-yl}-2-(2-hydroxyethyl)phenyl)-4-({5-acetyl-4H,5H,6H,7H-pyrazolo[1,5-a]pyrazin-2-yl}amino)-2-methyl-2,3-dihydropyridazin-3-one]"

# Test system: CD86 surface expression
# Assay: CD86 Inhibition Assay (Example 905), inhibition of B cell activity in total mouse splenocytes
# Type: cell-based, Balb/c mice
# Conditions: Splenocyte; total mouse splenocytes stimulated with 15 µg/ml IgM for 24 hr; gated on CD19+/7AAD- population
# Description: A CD86 Inhibition assay can be conducted on Formula I compounds for the inhibition of B cell activity using total mouse splenocytes purified from spleens of 8-16 week old Balb/c mice (Example 905).
# A generalized procedure for a standard assay for the inhibition of B cell activity that can be used to test Formula I compounds is as follows. Total mouse splenocytes are purified from spleens of 8-16 week old Balb/c mice by red blood cell lysis (BD Pharmingen #555899). Testing compounds are diluted to 0.5% DMSO and incubated with 1.25 x 10^6 splenocytes in a final volume of 200 µl in flat clear bottom plates (Falcon 353072) for 60 min at 37°C. Cells are then stimulated with the addition of 15 µg/ml IgM (Jackson ImmunoResearch 115-006-020), and incubated for 24 hr at 37°C, 5% CO2. Following the 24 hr incubation, cells are transferred to conical bottom clear 96-well plates and pelleted by centrifugation at 1200 x g x 5 min. Cells are preblocked by CD16/CD32 (BD Pharmingen #553142), followed by triple staining with CD19-FITC (BD Pharmingen #553785), CD86-PE (BD Pharmingen #553692), and 7AAD (BD Pharmingen #51-68981E). Cells are sorted on a BD FACSCalibur and gated on the CD19^+/7AAD^- population. The levels of CD86 surface expression on the gated population is measured versus test compound concentration. Exemplary results are in Table 3.
row,EC50 [µM],SMILES
1,0.192,"Cc1c(-c2cc(Nc3cc4n(n3)CCN(C)C4)c(=O)[nH]n2)cccc1N1Cc2cc(C(C)(C)C)sc2C1=O [Compound 101, 6-(3-{2-tert-butyl-6-oxo-4H,5H,6H-thieno[2,3-c]pyrrol-5-yl}-2-methylphenyl)-4-({5-methyl-4H,5H,6H,7H-pyrazolo[1,5-a]pyrazin-2-yl}amino)-2,3-dihydropyridazin-3-one]"
2,1.1,"Cc1c(-c2cc(Nc3cc4n(n3)CCN(C)C4)c(=O)n(C)n2)cc(F)cc1N1Cc2cc(C(C)(C)C)sc2C1=O [Compound 124, 6-(3-{2-tert-butyl-6-oxo-4H,5H,6H-thieno[2,3-c]pyrrol-5-yl}-5-fluoro-2-methylphenyl)-2-methyl-4-({5-methyl-4H,5H,6H,7H-pyrazolo[1,5-a]pyrazin-2-yl}amino)-2,3-dihydropyridazin-3-one]"
3,0.178,"Cn1nc(-c2cccc(N3Cc4cc(C(C)(C)C)sc4C3=O)c2CO)cc(Nc2cc(C3CC3)[nH]n2)c1=O [Compound 127, 6-(3-{2-tert-butyl-6-oxo-4H,5H,6H-thieno[2,3-c]pyrrol-5-yl}-2-(hydroxymethyl)phenyl)-4-[(5-cyclopropyl-1H-pyrazol-3-yl)amino]-2-methyl-2,3-dihydropyridazin-3-one]"
4,0.139,"Cc1cc(Nc2cc(-c3cccc(N4Cc5cc(C(C)(C)C)sc5C4=O)c3CO)nn(C)c2=O)nn1C [Compound 131, 6-(3-{2-tert-butyl-6-oxo-4H,5H,6H-thieno[2,3-c]pyrrol-5-yl}-2-(hydroxymethyl)phenyl)-4-[(1,5-dimethyl-1H-pyrazol-3-yl)amino]-2-methyl-2,3-dihydropyridazin-3-one]"
5,0.113,"CC(=O)N1CCn2nc(Nc3cc(-c4cccc(N5Cc6cc(C(C)(C)C)sc6C5=O)c4CO)nn(C)c3=O)cc2C1 [Compound 132, 6-(3-{2-tert-butyl-6-oxo-4H,5H,6H-thieno[2,3-c]pyrrol-5-yl}-2-(hydroxymethyl)phenyl)-4-({5-acetyl-4H,5H,6H,7H-pyrazolo[1,5-a]pyrazin-2-yl}amino)-2-methyl-2,3-dihydropyridazin-3-one]"
6,0.206,"Cn1nc(-c2cccc(N3Cc4cc(C(C)(C)C)sc4C3=O)c2CO)cc(Nc2cc3n(n2)CCCOC3)c1=O [Compound 134, 6-(3-{2-tert-butyl-6-oxo-4H,5H,6H-thieno[2,3-c]pyrrol-5-yl}-2-(hydroxymethyl)phenyl)-2-methyl-4-{4H,6H,7H,8H-pyrazolo[3,2-c][1,4]oxazepin-2-ylamino}-2,3-dihydropyridazin-3-one]"
7,0.704,"Cn1nc(-c2cccc(N3Cc4cc(C(C)(C)C)sc4C3=O)c2CO)cc(Nc2ccncn2)c1=O [Compound 136, 6-(3-{2-tert-butyl-6-oxo-4H,5H,6H-thieno[2,3-c]pyrrol-5-yl}-2-(hydroxymethyl)phenyl)-2-methyl-4-(pyrimidin-4-ylamino)-2,3-dihydropyridazin-3-one]"

row,SMILES,EC50 [µM]
1,"Cc1c(-c2cc(Nc3cc(CN4CC(F)(F)C4)n(C)n3)c(=O)[nH]n2)cccc1N1Cc2cc(C(C)(C)C)sc2C1=O [Compound 119, 6-(3-{2-tert-butyl-6-oxo-4H,5H,6H-thieno[2,3-c]pyrrol-5-yl}-2-methylphenyl)-4-({5-[(3,3-difluoroazetidin-1-yl)methyl]-1-methyl-1H-pyrazol-3-yl}amino)-2,3-dihydropyridazin-3-one]",0.352
2,"CN1CCn2nc(Nc3cc(-c4cccc(N5Cc6cc(C(C)(C)C)sc6C5=O)c4CO)nn(C)c3=O)cc2C1 [Compound 120, 6-(3-{2-tert-butyl-6-oxo-4H,5H,6H-thieno[2,3-c]pyrrol-5-yl}-2-(hydroxymethyl)phenyl)-2-methyl-4-({5-methyl-4H,5H,6H,7H-pyrazolo[1,5-a]pyrazin-2-yl}amino)-2,3-dihydropyridazin-3-one]",0.189
